In ChEMBL document CHEMBL1132676, “Resolution of a CPzI precursor, synthesis and biological evaluation of (+) and (-)-N-Boc-CPzI: a further validation of the relationship between chemical solvolytic stability and cytotoxicity” (Bioorg Med Chem Lett, 1999):

Tests used:
[1] = The compound was evaluated for the chemical solvolytic stability at a pH 3; type: physicochemical; conditions: buffer
L1210 = assay: In vitro cytotoxicity against L1210 murine leukemia cell lines; type: functional, cell-based; conditions: Mus musculus

Question: Which half-life [1] does the source give for `COC(=O)c1cc2c([nH]1)C(=O)C=C1N(C(=O)OC(C)(C)C)C[C@H]3C[C@]123` here?
Answer: The half-life was 177 h.

Question: And the IC50 (L1210)?
Answer: Its IC50 is 6 nM.

Question: Which IC50 (L1210) does the source give for `Cc1n[nH]c2c1[C@@]13C[C@@H]1CN(C(=O)OC(C)(C)C)C3=CC2=O` here?
Answer: The IC50 was 206 nM.

Question: For `Cc1c[nH]c2c1[C@@]13C[C@@H]1CN(C(=O)OC(C)(C)C)C3=CC2=O`, which T1/2 [1] is on record?
Answer: The T1/2 was 37 h.

Question: With `Cc1n[nH]c2c1[C@]13C[C@H]1CN(C(=O)OC(C)(C)C)C3=CC2=O` as the molecule, how does the IC50 (L1210) read?
Answer: Its IC50 is 923 nM.

Question: What does the source list for `Cc1n[nH]c2c1C13CC1CN(C(=O)OC(C)(C)C)C3=CC2=O` (centres undefined)?
Answer: half-life [1]: 110 h; IC50 (L1210): 370 nM

Question: Which half-life [1] does the source give for `CC(C)(C)OC(=O)N1C[C@H]2C[C@@]23C1=CC(=O)c1ccccc13` here?
Answer: The half-life was 133 h.

Question: What about the IC50 (L1210) of the same molecule?
Answer: Its IC50 is 80 nM.
